Here are results for 21 molecules from ChEMBL document CHEMBL2311264, “Synthesis and anticancer activity of heteroaromatic linked 4β-amido podophyllotoxins as apoptotic inducing agents” (Bioorg Med Chem Lett, 2013).

Common to all, as to format: functional, cell-based
The subject of one test is HeLa. Kind of test: Cytotoxicity against human HeLa cells […] by MTT assay. In general terms: Tetrazolium assays rely on reduction of a dye to a coloured formazan, in cell work by metabolically active cells.
A further test deals with ACHN. In words: Cytotoxicity against human ACHN cells […] by MTT assay.
A further test concerns B16. Kind of test: Cytotoxicity against mouse B16 cells […] by MTT assay.
In the next test the test system is HT-29. In words: Cytotoxicity against human HT-29 cells after 72 hrs by MTT assay. The settings on record: HT-29, 72 h.
The next test deals with A549. Kind of test: Cytotoxicity against human A549 cells […] by MTT assay.

For orientation: IC50 means the concentration needed to halve the response being measured. High values mean a need for much substance, low ones inhibition by little substance. Turning to `COc1cc([C@@H]2c3cc4c(cc3[C@@H](NC(=O)c3cc(-c5ccc(F)cc5)on3)[C@H]3COC(=O)[C@H]23)OCO4)cc(OC)c1OC`, the 50% inhibitory concentration (IC50) turned out to be 16.6 µM with HeLa; 15.6 µM in the test with ACHN; 23.5 µM in the test with B16; 19.9 µM in the test on HT-29; 20.6 µM in the test with A549.

In the case of `COc1cc([C@@H]2c3cc4c(cc3[C@@H](NC(=O)c3cc(-c5ccc(C)cc5)on3)[C@H]3COC(=O)[C@H]23)OCO4)cc(OC)c1OC`, the IC50 is 5.26 µM in the test with HeLa; 28.5 µM with ACHN; 20.3 µM in the test with B16; 27.9 µM with HT-29; 24.7 µM in the test with A549.

With `COc1cc([C@@H]2c3cc4c(cc3[C@@H](NC(=O)c3cc(-c5ccc(Cl)c(Cl)c5)on3)[C@H]3COC(=O)[C@H]23)OCO4)cc(OC)c1OC`, the IC50 was found to be 12.6 µM with HeLa; 16.8 µM with ACHN; 22.7 µM in the test on B16; 11.2 µM in the test on HT-29; 31.1 µM with A549.

With `COc1cc([C@@H]2c3cc4c(cc3[C@@H](NC(=O)c3cc(-c5ccc(F)c(F)c5)on3)[C@H]3COC(=O)[C@H]23)OCO4)cc(OC)c1OC`, the half-maximal inhibitory concentration (IC50) in the test with HeLa came out at 21.2 µM; in the test on ACHN, 16.4 µM; in the test on B16, 27.5 µM; in the test on HT-29 it was 14.1 µM; with A549, 12.7 µM.

For the molecule `COc1cc([C@@H]2c3cc4c(cc3[C@@H](NC(=O)c3cc(-c5ccc(C)cc5)[nH]n3)[C@H]3COC(=O)[C@H]23)OCO4)cc(OC)c1OC`, the 50% inhibitory concentration (IC50) in the test with HeLa stood at 16.9 µM; with ACHN, 25.8 µM; with B16 it was 16.6 µM; in the test on HT-29, 26.5 µM; in the test on A549 it was 22.3 µM.

For the molecule `COc1ccc(-c2cc(C(=O)N[C@@H]3c4cc5c(cc4[C@@H](c4cc(OC)c(OC)c(OC)c4)[C@H]4C(=O)OC[C@@H]43)OCO5)nc3cc(-c4ccccc4)nn23)cc1OC`, the half-maximal inhibitory concentration (IC50) came out at 14.4 µM in the test with HeLa; 19.3 µM in the test on ACHN; 10.7 µM with B16; 14.5 µM with HT-29; 17.3 µM in the test on A549.

As for `COc1cc([C@@H]2c3cc4c(cc3[C@@H](NC(=O)c3cc(-c5ccc(F)c(F)c5)[nH]n3)[C@H]3COC(=O)[C@H]23)OCO4)cc(OC)c1OC`, the IC50 in the test on HeLa came to 14.9 µM; in the test with ACHN, 32.5 µM; in the test with B16 it was 25.6 µM; with HT-29, 10.8 µM; with A549, 15.8 µM.

Consider `COc1cc([C@@H]2c3cc4c(cc3[C@@H](NC(=O)c3cc(-c5ccc([N+](=O)[O-])cc5)on3)[C@H]3COC(=O)[C@H]23)OCO4)cc(OC)c1OC`, for which the half-maximal inhibitory concentration (IC50) with HeLa came to 7.5 µM; in the test on ACHN it was 26.4 µM; in the test with B16, 16.8 µM; in the test on HT-29, 22.6 µM; with A549, 17.9 µM.

Regarding `COc1cc([C@@H]2c3cc4c(cc3[C@@H](NC(=O)c3cc(-c5ccc(F)cc5)[nH]n3)[C@H]3COC(=O)[C@H]23)OCO4)cc(OC)c1OC`, the IC50 in the test on HeLa turned out to be 15.2 µM; with ACHN, 18.3 µM; in the test with B16 it was 26.1 µM; with HT-29, 26.3 µM; in the test on A549, 21.2 µM.

Take `COc1cc(-c2cc(C(=O)N[C@@H]3c4cc5c(cc4[C@@H](c4cc(OC)c(OC)c(OC)c4)[C@H]4C(=O)OC[C@@H]43)OCO5)n[nH]2)cc(OC)c1OC`: the half-inhibitory concentration (IC50) in the test on HeLa is 11.5 µM; with ACHN, 27.1 µM; in the test with B16, 18.3 µM; in the test on HT-29 it was 16.8 µM; in the test with A549, 15.2 µM.

As to `COc1cc([C@@H]2c3cc4c(cc3[C@@H](NC(=O)c3cc(-c5ccccc5)on3)[C@H]3COC(=O)[C@H]23)OCO4)cc(OC)c1OC`, the IC50 in the test on HeLa is 5.9 µM; in the test with ACHN it was 17.5 µM; in the test on B16, 16.3 µM; in the test on HT-29, 19.5 µM; with A549, 13.6 µM.

`COc1cc([C@@H]2c3cc4c(cc3[C@@H](NC(=O)c3cc(-c5ccc([N+](=O)[O-])cc5)n5nc(-c6ccccc6)cc5n3)[C@H]3COC(=O)[C@H]23)OCO4)cc(OC)c1OC`: the IC50 in the test with HeLa turned out to be 12.1 µM; with ACHN, 17.7 µM; with B16, 18.4 µM; with HT-29, 10.9 µM; with A549, 10.6 µM.

Consider `COc1ccc(-c2cc(C(=O)N[C@@H]3c4cc5c(cc4[C@@H](c4cc(OC)c(OC)c(OC)c4)[C@H]4C(=O)OC[C@@H]43)OCO5)no2)cc1`, for which the IC50 in the test on HeLa is 11.2 µM; in the test with ACHN, 30.3 µM; in the test with B16 it was 22.5 µM; in the test on HT-29, 32.1 µM; with A549, 38.1 µM.

With `COc1ccc(-c2cc(C(=O)N[C@@H]3c4cc5c(cc4[C@@H](c4cc(OC)c(OC)c(OC)c4)[C@H]4C(=O)OC[C@@H]43)OCO5)n[nH]2)cc1`, the IC50 in the test with HeLa turned out to be 9.4 µM; in the test on ACHN it was 11.6 µM; in the test with B16 it was 9.5 µM; with HT-29, 8.4 µM; in the test with A549 it was 5.3 µM.

On to `COc1cc([C@@H]2c3cc4c(cc3[C@@H](NC(=O)c3cc(-c5ccc([N+](=O)[O-])cc5)[nH]n3)[C@H]3COC(=O)[C@H]23)OCO4)cc(OC)c1OC`, for which the IC50 in the test on HeLa came out at 14.6 µM; with ACHN, 23.5 µM; in the test on HT-29, 20.6 µM; in the test with A549, 19.4 µM.

Regarding `COc1cc(-c2cc(C(=O)N[C@@H]3c4cc5c(cc4[C@@H](c4cc(OC)c(OC)c(OC)c4)[C@H]4C(=O)OC[C@@H]43)OCO5)nc3cc(-c4ccccc4)nn23)cc(OC)c1OC`, the concentration for half-maximal inhibition (IC50) with HeLa worked out at 13.7 µM; with ACHN it was 13.8 µM; in the test on B16 it was 12.7 µM; with HT-29, 9.2 µM; with A549, 9.5 µM.

On to `COc1cc([C@@H]2c3cc4c(cc3[C@@H](NC(=O)c3cc(-c5ccccc5)[nH]n3)[C@H]3COC(=O)[C@H]23)OCO4)cc(OC)c1OC`, for which the IC50 was determined as 7.5 µM in the test on HeLa; 30.2 µM in the test on ACHN; 16.3 µM in the test with B16; 26.5 µM in the test on HT-29; 28.9 µM in the test on A549.

In the case of `COc1cc(-c2cc(C(=O)N[C@@H]3c4cc5c(cc4[C@@H](c4cc(OC)c(OC)c(OC)c4)[C@H]4C(=O)OC[C@@H]43)OCO5)no2)cc(OC)c1OC`, the IC50 was 18.4 µM in the test on HeLa; 34.2 µM with ACHN; 23.4 µM in the test on B16; 25.1 µM in the test with HT-29; 19.8 µM in the test with A549.

With `COc1ccc(-c2cc(C(=O)N[C@@H]3c4cc5c(cc4[C@@H](c4cc(OC)c(OC)c(OC)c4)[C@H]4C(=O)OC[C@@H]43)OCO5)n[nH]2)cc1OC`, the IC50 in the test on HeLa was determined as 25.1 µM; in the test with ACHN it was 31.6 µM; in the test with B16, 45.3 µM; in the test with HT-29, 36.3 µM; in the test on A549 it was 39.5 µM.

Consider `COc1ccc(-c2cc(C(=O)N[C@@H]3c4cc5c(cc4[C@@H](c4cc(OC)c(OC)c(OC)c4)[C@H]4C(=O)OC[C@@H]43)OCO5)no2)cc1OC`, for which the IC50 in the test on HeLa was found to be 13.3 µM; with ACHN, 23.1 µM; in the test with B16, 12.7 µM; with HT-29, 38.4 µM; in the test with A549, 23.1 µM.

For the molecule `COc1ccc(-c2cc(C(=O)N[C@@H]3c4cc5c(cc4[C@@H](c4cc(OC)c(OC)c(OC)c4)[C@H]4C(=O)OC[C@@H]43)OCO5)nc3cc(-c4ccccc4)nn23)cc1`, the IC50 amounted to 8.9 µM with HeLa; 17.3 µM in the test on ACHN; 18.3 µM with B16; 5.7 µM with HT-29; 11.2 µM in the test on A549.
